Data on 5 compounds can be found in paper PMC7321382, “Synthesis and Antibacterial Analysis of Analogues of the Marine Alkaloid Pseudoceratidine” (Molecules, 2020).

Converted amounts (≈) assume the structure as drawn.

The term EC50 denotes the concentration needed to bring the measured effect to its halfway point. By MIC is commonly meant the lowest concentration that inhibits growth of the organism. One may read the melting point as the temperature, or range, at which the solid turns liquid.

One series relates to Listeria monocytogenes. Also noted: method as in doi:10.1016/S0960-894X(96)00622-1, doi:10.1016/S0040-4020(98)00340-8, doi:10.1016/0040-4039(96)01310-X. The following applies: Gram-positive; cited from earlier work.
The test system of the next series is Plasmodium falciparum. Set-up: method as in PMID 29297684. The following applies: anti-malarial; cited from earlier work.
The test system of a further series is Candida albicans. Also noted: method as in doi:10.1016/S0960-894X(96)00622-1, doi:10.1016/S0040-4020(98)00340-8, doi:10.1016/0040-4039(96)01310-X. The following applies: anti-fungal; cited from earlier work.
A further series has as its system E. coli DH5α. Kind of series: Antibacterial MIC, broth microdilution, E. coli. Type of series: cell-based, Escherichia coli. The following applies: for MIC: Escherichia coli, Gram-negative, 24 h incubation, highest concentration tested 128 µM, † lower starting concentration due to insolubility. On the procedure: (§1) The MIC was determined using the broth microdilution method. Mueller Hinton (MH) broth base was prepared in milli-Q water, then autoclaved at 120 °C for 1 h before allowing it to cool to room temperature. A single colony of each bacterial strain (E. coli DH5α and S. aureus 16207) was inoculated in MHB and incubated at 37 °C overnight. Overnight cultures were adjusted to 10^6 CFU/mL in MHB according to the McFarland Standard,100 μL of which was further diluted to a total of 10 mL in the media. The stock solutions of the compounds were prepared at 12.8 mM in purified DMSO. The stock solutions were further diluted in milli-Q water to 64 μM in 0.5% DMSO for testing against S. aureus, and 256 μM in 2% DMSO for testing against E. coli. Compounds that were not soluble in these solvent mixtures were further diluted in half to get clear solutions for the bioassay. DMSO is known to have weak antibacterial activity. To exclude the antibacterial effect of DMSO from the results, a solution of 2% DMSO in milli-Q water was used as an additional control in the experiments. The compounds and three controls (the natural product pseudoceratidine 1 for both strains, streptomycin for S. aureus, and polymyxin B for E. coli) then underwent a dilution series. The assay was performed by adding 50 μL of each compound solution at the different concentrations and 50 μL of the diluted bacterial culture to the different wells of a 96-well microtiter plate. The experiments were performed at least thrice and in triplicates. MIC after 24 h of incubation was determined by both visual inspection and absorbance at 600 nm using an EnSpire Multimode plate reader.

In series [1] the test system is HEK293 human embryonic kidney cells. The experiment in a line: Cytotoxicity, sulforhodamine B cell proliferation assay. It counts as cell-based. The settings on record: for relative growth of HEK293 cells (% of untreated control) at 16 µM: Homo sapiens, 72 h, 16 µM compound, 3 days, relative to control with no treatment, mean ± SD of triplicates. How it is done: As described previously, cell proliferation was measured by sulforhodamine B colorimetric assay in which 2000 HEK293 human embryonic kidney cells were seeded in 96-well plates in the presence of varying concentrations of drugs. The sulforhodamine B colorimetric assay, which is based on the measurement of cellular protein content, was used to measure cell density. After drug treatment for 3 days, cells were fixed with 10% (w/v) trichloroacetic acid and stained with 0.057% (w/v) sulforhodamine B for 30 min, and the excess dye was removed by washing repeatedly with 1% (v/v) acetic acid. The protein-bound dye was dissolved in Tris base solution (10 mM) for optical density determination at 510 nm using a microplate reader. All experiments were done in triplicate, and were repeated at least twice. The optimal cell densities were previously determined to select initial cell densities that ensured that the cells were in the logarithmic phase for the experiments.

The next series relates to S. aureus 16207. The experiment in a line: Antibacterial MIC, broth microdilution, S. aureus. It counts as cell-based, Staphylococcus aureus. The settings on record: Gram-positive, 24 h incubation, highest concentration tested 32 µM; for MIC: Staphylococcus aureus, 16207. How it is done: as §1
A general note: Dilution methods test growth across graded concentrations, often in twofold steps.

The subject of a further series is Pseudomonas aeruginosa. Set-up: method as in doi:10.1016/S0960-894X(96)00622-1, doi:10.1016/S0040-4020(98)00340-8, doi:10.1016/0040-4039(96)01310-X. The following applies: Gram-negative; cited from earlier work.
The next series deals with Escherichia coli. Set-up: method as in doi:10.1016/S0960-894X(96)00622-1, doi:10.1016/S0040-4020(98)00340-8, doi:10.1016/0040-4039(96)01310-X. The settings on record: Gram-negative; cited from earlier work.
The subject of the next series is Balanus amphitrite. Set-up: method as in doi:10.1016/0040-4039(96)00025-1. The settings on record: marine larval organism Balanus amphitrite; cited from earlier work.
In a further series the test system is Staphylococcus aureus. Also noted: method as in doi:10.1016/S0960-894X(96)00622-1, doi:10.1016/S0040-4020(98)00340-8, doi:10.1016/0040-4039(96)01310-X. The following applies: Gram-positive; cited from earlier work.
In the next series the test system is HepG2 liver cell line. Also noted: method as in PMID 29297684. The following applies: compared with HEK293 result; cited from earlier work.

For `O=C(NCCCCNCCCNC(=O)c1cc(Br)c(Br)[nH]1)c1cc(Br)c(Br)[nH]1` [Pseudoceratine 1, pseudoceratidine], the “MIC Listeria monocytogenes” value in the series on Listeria monocytogenes was 5 µg/mL (≈ 7.73 µM). The EC50 in the series with Plasmodium falciparum is 1000 nM. In the series on Candida albicans, the “MIC Candida albicans” value is reported as 32 µg/mL (≈ 49.5 µM). Also, the MIC with E. coli DH5α lay within 32 to 64 µM (≈ 20.7 to 41.4 µg/mL). In addition, in series [1], the relative growth of HEK293 cells (% of untreated control) at 16 µM was found to be 0.7 ± 0.8%. Moreover, in the series with S. aureus 16207, the “MIC S. Aureus” value is 8 to 16 µM and the MIC was in the range of 8 to 16 µM (≈ 5.18 to 10.4 µg/mL). In addition, the “MIC Pseudomonas aeruginosa” value with Pseudomonas aeruginosa is 128 µg/mL (≈ 198 µM). Also, the “MIC Escherichia coli” value with Escherichia coli was 32 µg/mL (≈ 49.5 µM). The EC50 antifouling with Balanus amphitrite is 8 µg/mL (≈ 12.4 µM). Moreover, the “MIC Staphylococcus aureus” value in the series with Staphylococcus aureus is reported as 4 µg/mL (≈ 6.18 µM).

In turn, `O=C(NCCCNCCNC(=O)c1cc(Cl)c(Cl)[nH]1)c1cc(Cl)c(Cl)[nH]1` [Compound 16c] yielded a melting point of 133 to 135 °C. Besides, in the series with E. coli DH5α, the “activity against Gram-negative bacteria compared with 1 (in words)” value was “equivalents activity to 1” and the MIC lay in the range of 32 to 64 µM (≈ 14.1 to 28.2 µg/mL). The same compound gave a relative growth of HEK293 cells (% of untreated control) at 16 µM in [1] of 2.5 ± 1.8%. For the same compound, in the series on S. aureus 16207, the “MIC S. Aureus” value lay in the range of 16 to 32 µM and the minimum inhibitory concentration (MIC) was in the range of 16 to 32 µM (≈ 7.06 to 14.1 µg/mL).

Take `O=C(NCCCNCCCNC(=O)c1cc(Br)c(Br)[nH]1)c1cc(Br)c(Br)[nH]1` [Compound 14e]: the melting point was 135 to 137 °C. For the same compound, the MIC in the series with E. coli DH5α is 32 to 64 µM (≈ 20.3 to 40.5 µg/mL). For the same compound, the relative growth of HEK293 cells (% of untreated control) at 16 µM in series [1] turned out to be 1.1 ± 0.9%. For the same compound, in the series on S. aureus 16207, the “MIC S. Aureus” value was in the range of 8 to 16 µM and the MIC fell in the range of 8 to 16 µM (≈ 5.06 to 10.1 µg/mL).

In turn, `O=C(NCCCNCCNC(=O)c1cc(Br)c(Br)[nH]1)c1cc(Br)c(Br)[nH]1` [Compound 16e] registered a melting point of 206 to 208 °C. Besides, in the series on E. coli DH5α, the MIC was in the range of 64 to 128 µM (≈ 39.6 to 79.2 µg/mL). In addition, the relative growth of HEK293 cells (% of untreated control) at 16 µM in [1] was 2.6 ± 2%. Also, in the series with S. aureus 16207, the “MIC S. Aureus” value fell in the range of 8 to 16 µM and the MIC lay within 8 to 16 µM (≈ 4.95 to 9.9 µg/mL).

In the case of `O=C(NCCCNCCCCNCCCNC(=O)c1cc(Br)c(Br)[nH]1)c1cc(Br)c(Br)[nH]1` [Compound 19e], in the series with E. coli DH5α, the MIC lay in the range of 32 to 64 µM (≈ 22.5 to 45.1 µg/mL). In [1] (HEK293, at concentrations 2–4 times the MIC (16 µM)), the “cytotoxic activity (in words)” value was “almost no cytotoxic activity”. Moreover, the relative growth of HEK293 cells (% of untreated control) at 16 µM in [1] is 94.5 ± 5.9%. In the series with HepG2 liver cell line, the “cytotoxicity versus HepG2 (in words)” value is reported as “far less toxic”. Moreover, in the series with S. aureus 16207, the “MIC S. Aureus” value was 2 to 4 µM and the minimum inhibitory concentration (MIC) lay in the range of 2 to 4 µM (≈ 1.41 to 2.82 µg/mL).
